# Conditions: buffer; pH 7.4; 200.0 µM
row,Structure (SMILES),solubility kinetic [µg/mL]
1,COc1ccc(OCC(=O)c2c[nH]c3ccccc23)cc1,< 0.6
2,O=C(NCc1ccco1)C1CC(c2ccc(F)cc2)=NO1 (centres undefined),8
3,CC1CCN(CC#CCOc2ccc(Cl)cc2)CC1.O=C(O)C(=O)O,16.3
4,Cn1c(-c2ccccc2)nc2cnccc21,> 31.4
5,NC1=NC(=O)CC(C(=O)Nc2cccc3ccccc23)S1 (centres undefined),> 44.9
6,Cc1ccc(C(=O)NCCNC(=O)c2ccc(C)o2)o1,36.1
7,CCOC(=O)C1=C(COC(=O)C2CC(=O)N(CCc3ccccc3)C2)NC(=O)NC1C (centres undefined),> 64.4
8,COc1ccc(C)cc1NC(=O)CN(C)C1CCCCC1,30.9
9,O=C(Nc1ccccc1Cl)C1CC(=O)N(c2ccccc2)C1 (centres undefined),33.4
10,C=CCN(CC(=O)NC1CC1)S(=O)(=O)c1cccc(C(F)(F)F)c1,> 54.4
11,CC(C)(C)NC(=O)c1ccc(COc2ccc(Cl)cc2Cl)o1,5
12,Cn1cnc(S(=O)(=O)Nc2ccc(OC(F)F)cc2)c1,> 45.5
13,Cc1ccc(Cn2c(N3CCN(C)CC3)nc3c2c(=O)[nH]c(=O)n3C)cc1,> 55.3
14,O=c1c(Cc2c(F)cccc2Cl)c(O)ccn1C1CC1,> 44.1
15,OCCC1CN(CC2CC2)CCN1Cc1ccc(F)c(F)c1 (centres undefined),> 46.6
16,COc1ccccc1N1CCN(C(=O)c2cc3cc(C)ccc3[nH]2)CC1,< 0.2
17,CC(C)(CNS(=O)(=O)c1cccs1)N1CCOCC1,> 45.7
18,COC(=O)c1cc(C(=O)OCC(=O)Nc2ccc(N3CCOCC3)cc2)cc([N+](=O)[O-])c1,11.8
19,N/C(=N\OC(=O)CC1CCCCC1)c1ccc(Cl)cc1,0.9
20,COc1cccc(/C=C/C(=O)OCC(=O)Nc2cccc(S(=O)(=O)NC3=NCCCCC3)c2)c1,13.5

row,Structure (SMILES),solubility kinetic [µg/mL]
1,CC(C)(C)c1ccc(C(=O)NC(=S)N2CCCC2)cc1,7.2
2,C=CCn1c(N)cc(=O)nc1SCC(=O)Nc1ccc(C)cc1,14.8
3,COc1ccc(C(=O)N=c2sc3ccccc3n2C)cc1,< 0.3
4,Cc1nc2c(C#N)c[nH]n2c(=O)c1CCO,> 32.7
5,CCOc1ccc(Nc2nc3ccccc3n2C)cc1,> 40.1
6,C=CCn1c(O)c(/C=N/N2CCCCC2)c(=O)[nH]c1=O,> 41.7
7,Cn1c(Cl)c(/C=N/OC(=O)C(C)(C)C)c2ccccc21,0.7
8,COc1ccccc1C(=O)N/C(=N/c1nc(C)cc(C)n1)Nc1ccccc1,1.1
9,Cc1nn(C)cc1C(=O)Nc1ccc2c(c1)OCCO2,> 41
10,Cc1ccc(C(=O)C2=C(O)C(=O)N(c3ncccn3)C2c2ccc(F)cc2)o1 (centres undefined),> 56.9
11,CCOC(=O)CC1C(=O)NCCN1C(=O)c1cccc(OC)c1 (centres undefined),44.4
12,CN(C)C(=O)COc1ncnc2scc(-c3ccc(F)cc3)c12,45.8
13,O=C(Nc1ccc([N+](=O)[O-])c(NC(=O)c2cccnc2)c1)c1cccnc1,3.3
14,CCC1(C)Cc2ccccc2-c2nc(SC)[nH]c(=O)c21 (centres undefined),< 0.3
15,COCCCNC(=S)N1CCC(C(=O)c2ccc(Cl)cc2)CC1,> 53.2
16,Cc1ccccc1NC(=O)c1cccc(NC(=O)c2c(C(=O)O)cccc2[N+](=O)[O-])c1,56.1
17,Cc1cccc(N2CCN(C(=O)c3ccc4[nH]c(C)c(C)c4c3)CC2)c1C,4.2
18,COc1cc(C(=O)NC2CCCCCCC2)cc(OC)c1OC,< 0.7
19,N#Cc1cc2c(nc1SCC(=O)O)CCCCC2,> 39.3
20,CCOC(=O)c1cccc(N2C(=O)C3C4C=CC(CC4)C3C2=O)c1 (centres undefined),3.7

row,Structure (SMILES),solubility kinetic [µg/mL]
1,O=C(O)/C=C/C(=O)Nc1ccc(Cl)c(C(=O)O)c1,38
2,COc1cc2c(cc1OC)CN(C1CCC(C)CC1)CC2 (centres undefined),34.7
3,Cn1c(O)c(C(=Nc2ccc(F)cc2)c2ccccc2)c(=O)n(C)c1=O,7.4
4,CN(CCO)C(=O)C(c1ccccc1)c1ccccc1,36.2
5,CCn1c(=O)ccc2cc([N+](=O)[O-])ccc21,> 32.7
6,Cc1nn(C)c2ncc(C(N)=O)c(Oc3cccnc3)c12,> 42.5
7,O=C1Cc2cc(S(=O)(=O)Nc3ccc(N4CCOCC4)cc3)ccc2N1,> 56
8,Nc1c(Br)c(=O)[nH]c(=O)n1-c1ccccc1,> 42.3
9,CCC(CO)(C(=O)OC1CC2CCC(C1)N2C)c1ccccc1.Cl (centres undefined),> 53.1
10,O=C(NCCc1ccc(Cl)cc1)c1ccc2nc[nH]c2c1,> 45
11,COc1ccc(NC(=O)CSCc2ccc([N+](=O)[O-])cc2)cc1OC,50.1
12,Cc1c(C(=O)OCC(=O)NCC2CCCO2)oc2ccccc12 (centres undefined),> 47.6
13,Cc1cc(N/C=C/C(=O)c2cccs2)ccc1F,1.7
14,Clc1ccc(C2CSc3c4ncnc-4ncn32)cc1 (centres undefined),33.9
15,N#Cc1cccnc1N1CCN(C(=O)c2ccco2)CC1,> 42.3
16,CCCN1CCN(c2ccc(S(N)(=O)=O)cc2[N+](=O)[O-])CC1,32.9
17,Cc1cnc(C(=O)OCC(=O)c2cc(C)n(C)c2C)cn1,> 43.1
18,COCCn1c(C)cc(C(=O)COC(=O)c2ccc(S(=O)(=O)N(C)C)cc2)c1C,2.4
19,O=C(O)C1CCCN(S(=O)(=O)c2ccccc2[N+](=O)[O-])C1 (centres undefined),36.5

# From PubChem BioAssay AID1996
